{"source": "patent US20250129041A1", "about": "“MOLECULAR GLUE AND USES THEREOF” (ASTROGEN, INC., priority 2023, published 2025)", "key": {"MDA-MB-231": {"system": "MDA-MB-231", "experiment": "Dose response curve, cell survival, 48 hours, MDA-MB-231", "assay_type": "cell-based", "details": "Homo sapiens, Adenocarcinoma, read-out: IC50 of AST-DT-218, MDA-MB-231", "protocol": "(§1) A DRC was created to determine whether AST-DT-218 is effective in killing various cancer cells. First, hepatoma cell lines (Huh7 and Hep3B), non-small cell lung cancer cell lines (NCI-H460 and NCI-H1299), pancreatic cancer cell lines (PANC-1 and Mia-Paca-2), rectal cancer cell lines (HT29 and HCT116), a gastric adenocarcinoma cell line (AGS), a malignant melanoma cell line (A375), and an adenocarcinoma cell line (MDA-MB-231) were prepared. Each cell line was cultured in a flask, and the cells which reached the logarithmic growth phase were prepared, washed with PBS, harvested with trypsin, centrifuged to adjust the cell density, and then resuspended in an appropriate culture medium, and plated into 96-well plates. After culturing until the cells attached to the plates and stabilized, AST-DT-218 and controls (lenalidomide and pomalidomide) were prepared and diluted to various concentrations (10-point by diluting by half from the highest concentration of 50 μM). […] After completion of the culture, cell survival was assessed using a cell counting method through cell nuclear staining. Data were collected by measuring cell survival at each concentration, and then DRC was created (see FIGS. 5 to 12) and IC50 values were calculated (see Table 8)."}, "Hep3B": {"system": "Hep3B", "experiment": "HCC cell survival by cell nuclear staining, 24 hours, Hep3B", "assay_type": "cell-based", "details": "Homo sapiens", "protocol": "(§2) An indication expansion experiment was performed to evaluate the potential of AST-DT-218 for treating hepatocellular carcinoma (HCC). First, HCC cell lines (Huh7, Hep3B, SNU449, and SNU475) were prepared, and AST-DT-218 and Sorafenib were at the highest concentration of 50 μM, serially diluted by half starting therefrom, thereby preparing 10 concentrations (50 μM, 25 μM, 12.5 μM, etc.). HCC cell lines (Huh7, Hep3B, SNU449, SNU475) were seeded into 96-well plates, in which each well was treated with AST-DT-218 and Sorafenib solutions, and the cells were cultured in an incubator for 24 hours. Then, the cell survival at each concentration was evaluated by measuring the cell count using cell nuclear staining, and a concentration-response curve of cell survival was created based on the data, and the IC50 value was derived."}, "[1]": {"experiment": "Single dose toxicity study", "assay_type": "in vivo", "details": "rats", "protocol": "The toxicity of AST-DT-218 at a single dose was evaluated. First, healthy adult male and female rats were prepared and then fasted for 12 hours before the experiment. Solutions were prepared for each dose group (0 mg/kg, 500 mg/kg, 1,000 mg/kg, and 2,000 mg/kg), and the final solution volume was set at 40 mL/kg.\nFor […] to 15 days after administration, clinical symptoms (e.g., colored stool, hairloss, etc.), changes in weight, changes in food consumption, and changes in organ weight were observed, and ophthalmic examinations were performed and autopsies were performed."}, "TA100 strain": {"system": "TA100 strain", "protocol": "(§3) First, TA98 and TA 100 strains, which detect frameshift mutations and point mutations, respectively, were cultured. Then, AST-DT-218 was dissolved in a solvent and diluted to various concentrations (20.5 μg/mL, 61.7 μg/mL 185.1 μg/mL, […], 1666.6 μg/mL, and 5000 μg/mL) to prepare an […] (a metabolic activation system; concentration: 30%) including liver enzyme extracts and supplements. Into a histidine-deficient medium at different concentrations of AST-DT-218, (i) the TA98 strain was inoculated without the […] (TA98−S9), (ii) the TA98 strain was inoculated by mixing it with the […] (TA98+S9), (iii) the TA100 strain was inoculated without the […] (TA100−S9), and (iv) the TA100 strain was inoculated by mixing it with the S9 mixture (TA100+S9). As a solvent control, which is a negative control, only the solvent was inoculated into a histidine-deficient medium, and only a pure solvent was used in the absence of any compound. […] After culturing for 48 to 72 hours in each medium, the number of colonies generated was counted to calculate the mutation rate, and the mutagenic effect was compared depending on the presence or absence of the S9 mixture to analyze the effect on metabolic activation."}, "TA98 strain": {"system": "TA98 strain", "protocol": "as §3"}, "AGS": {"system": "AGS", "experiment": "Dose response curve, cell survival, 48 hours, AGS", "assay_type": "cell-based", "details": "Homo sapiens, Gastric Adenocarcinoma, read-out: IC50 of AST-DT-218, AGS", "protocol": "as §1"}, "Huh7": {"system": "Huh7", "experiment": "HCC cell survival by cell nuclear staining, 24 hours, Huh7", "assay_type": "cell-based", "details": "Homo sapiens, Huh-7", "protocol": "as §2"}, "PANC-1": {"system": "PANC-1", "experiment": "Dose response curve, cell survival, 48 hours, PANC-1", "assay_type": "cell-based", "details": "Homo sapiens, Pancreatic Carcinoma, read-out: IC50 of AST-DT-218, PANC-1", "protocol": "as §1"}, "SNU449": {"system": "SNU449", "experiment": "HCC cell survival by cell nuclear staining, 24 hours, SNU449", "assay_type": "cell-based", "details": "Homo sapiens, SNU-449", "protocol": "as §2"}, "NCI-H1299": {"system": "NCI-H1299", "experiment": "Dose response curve, cell survival, 48 hours, NCI-H1299", "assay_type": "cell-based", "details": "Homo sapiens, Non-Small Cell Lung Cancer, read-out: IC50 of AST-DT-218, NCI-H1299", "protocol": "as §1"}, "hERG channel": {"target": "hERG channel (Homo sapiens (Human), UniProt Q12809)", "sequence (Q12809 whole entry)": "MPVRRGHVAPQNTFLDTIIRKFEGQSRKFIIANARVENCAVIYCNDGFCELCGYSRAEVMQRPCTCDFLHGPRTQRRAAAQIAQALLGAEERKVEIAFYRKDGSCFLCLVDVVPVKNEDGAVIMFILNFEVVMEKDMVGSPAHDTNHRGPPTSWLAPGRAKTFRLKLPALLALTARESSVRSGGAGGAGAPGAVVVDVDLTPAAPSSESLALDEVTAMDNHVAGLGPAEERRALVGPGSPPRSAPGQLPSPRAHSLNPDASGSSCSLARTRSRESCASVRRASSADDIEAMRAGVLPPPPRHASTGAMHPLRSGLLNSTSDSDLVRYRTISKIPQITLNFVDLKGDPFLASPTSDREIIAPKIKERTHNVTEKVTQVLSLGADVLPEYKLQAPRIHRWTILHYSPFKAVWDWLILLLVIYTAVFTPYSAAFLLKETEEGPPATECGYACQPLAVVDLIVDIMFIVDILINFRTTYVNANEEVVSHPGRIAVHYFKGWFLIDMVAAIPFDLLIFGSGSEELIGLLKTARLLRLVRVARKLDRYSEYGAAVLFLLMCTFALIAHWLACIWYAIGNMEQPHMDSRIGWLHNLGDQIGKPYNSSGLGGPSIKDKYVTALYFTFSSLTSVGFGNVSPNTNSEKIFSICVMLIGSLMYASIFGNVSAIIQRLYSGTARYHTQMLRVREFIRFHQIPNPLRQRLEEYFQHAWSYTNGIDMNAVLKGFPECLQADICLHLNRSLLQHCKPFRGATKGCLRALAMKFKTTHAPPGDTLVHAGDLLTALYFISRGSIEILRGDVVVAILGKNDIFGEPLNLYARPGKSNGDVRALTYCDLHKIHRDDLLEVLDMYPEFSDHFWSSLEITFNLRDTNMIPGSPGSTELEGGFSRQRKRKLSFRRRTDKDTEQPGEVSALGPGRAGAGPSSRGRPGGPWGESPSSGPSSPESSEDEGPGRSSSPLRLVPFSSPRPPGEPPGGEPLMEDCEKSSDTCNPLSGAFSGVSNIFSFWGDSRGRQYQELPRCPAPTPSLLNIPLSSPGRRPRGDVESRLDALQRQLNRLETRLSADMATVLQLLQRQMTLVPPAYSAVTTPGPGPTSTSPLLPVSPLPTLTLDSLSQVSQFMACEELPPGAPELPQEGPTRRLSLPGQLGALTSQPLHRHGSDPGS", "experiment": "hERG-related cardiotoxicity test using automated patch clamp", "assay_type": "cell-based", "details": "hERG channel-expressing CHO cell line", "protocol": "In order to evaluate the inhibitory effect of AST-DT-218 on the hERG channel and determine its potential to induce cardiotoxicity, a hERG-related cardiotoxicity test using an automated patch clamp was performed. First, a hERG channel-expressing cell line (CHO) was cultured, and AST-DT-218 was dissolved in a solvent (DMSO) and diluted to a concentration (1 μM). Cells were mounted on a patch-clamp device, and the electrical activity of hERG channels was recorded by measuring voltage-dependent currents. The inhibitory effect was calculated as the current reduction ratio, and the IC50 value was derived by constructing a concentration-response curve."}}, "data": [{"smiles": "COc1ccc([C@@H](C)Nc2cccc3c2C(=O)N(C2CCC(=O)NC2=O)C3=O)cc1", "note": "(stereo partly drawn) [AST-DT-218, 2-(2,6-dioxopiperidin-3-yl)-4-(((R)-1-(4-methoxyphenyl)ethyl)amino)isoindoline-1,3-dione]", "values": [{"measurement": "IC50", "setting": "MDA-MB-231", "value": 636, "unit": "nM"}, {"measurement": "IC50", "setting": "Hep3B", "value": 378, "unit": "nM"}, {"measurement": "changes in clinical symptoms, body weight, food consumption, ophthalmological examination, organ weights, and autopsies", "setting": "[1]; single oral dose up to 2,000 mg/kg, 15 days observation", "value": "no toxicologically significant changes"}, {"measurement": "Clinical Signs", "setting": "[1]; single p.o. dose 500 mg/kg, all animals, day 2", "value": "colored stool"}, {"measurement": "Clinical Signs", "setting": "[1]; single p.o. dose 1,000 mg/kg, all animals, day 2", "value": "colored stool"}, {"measurement": "Clinical Signs", "setting": "[1]; single p.o. dose 2,000 mg/kg, all animals, day 2", "value": "colored stool"}, {"measurement": "Clinical Signs", "setting": "[1]; single p.o. dose 2,000 mg/kg, animal #19, day 14-15", "value": "loss of fur"}, {"measurement": "Clinical Signs", "setting": "[1]; single p.o. dose 2,000 mg/kg, animal #40, day 3", "value": "colored stool"}, {"measurement": "Clinical Signs", "setting": "[1]; single p.o. dose 2,000 mg/kg, animals #18 to #20, day 3", "value": "colored stool"}, {"measurement": "number of mutant colonies", "setting": "TA100 strain; TA100, regardless of presence or absence of S9 mixture", "value": "no significant increase"}, {"measurement": "Mutagenic Data Points w/ S9", "setting": "TA100 strain; TA100, test conc. 20.5-5,000 μg/mL, with S9", "value": "No"}, {"measurement": "Mutagenic Data Points w/o S9", "setting": "TA100 strain; TA100, test conc. 20.5-5,000 μg/mL, without S9", "value": "No"}, {"measurement": "number of mutant colonies", "setting": "TA98 strain; TA98, regardless of presence or absence of S9 mixture", "value": "no significant increase"}, {"measurement": "Mutagenic Data Points w/ S9", "setting": "TA98 strain; TA98, test conc. 20.5-5,000 μg/mL, with S9", "value": "No"}, {"measurement": "Mutagenic Data Points w/o S9", "setting": "TA98 strain; TA98, test conc. 20.5-5,000 μg/mL, without S9", "value": "No"}, {"measurement": "IC50", "setting": "AGS", "value": 254, "unit": "nM"}, {"measurement": "IC50", "setting": "Huh7", "value": 750, "unit": "nM"}, {"measurement": "IC50", "setting": "PANC-1", "value": 674, "unit": "nM"}, {"measurement": "IC50", "setting": "SNU449", "value": 155, "unit": "nM"}, {"measurement": "IC50", "setting": "NCI-H1299", "value": 390, "unit": "nM"}, {"measurement": "possibility of causing cardiotoxicity (hERG patch clamp)", "setting": "hERG channel", "value": "low possibility of causing cardiotoxicity"}]}]}
